Consider 1 compound from ChEMBL document CHEMBL1833833, “Design and synthesis of long acting inhaled corticosteroids for the treatment of asthma” (Bioorg Med Chem Lett, 2011).

What is called clearance is a measure of how efficiently the substance is removed, as volume per time. Lower therefore signals inefficient removal. By bioavailability is commonly meant the share of a dose that reaches the circulation, judged against a reference dose that is usually intravenous. A word on the IC50: it is the concentration that gives 50% inhibition. A lower IC50 goes with inhibition by little substance. Usually solubility stands for the concentration that dissolves in the medium under given conditions. Low readings indicate little dissolved substance, high ones much dissolved substance. Broadly, the half-life is the time in which the quantity being followed falls by half.

The nature of data set [1]: Antiinflammatory activity in rat assessed as inhibition of LPS-induced lung neutrophilia at 10 ug, intratracheally administered 4 hr prior to LPS challenge measured after 8 hrs. It counts as functional, Neutrophil.
The nature of data set [2]: Antiinflammatory activity in rat assessed as inhibition of LPS-induced lung neutrophilia at 10 ug, intratracheally administered 4 hr prior to LPS challenge measured after 4 hrs. It counts as functional, Neutrophil.
Data set [3] addresses T1, Estrogen receptor (Homo sapiens) (UniProt P03372).
T1 sequence (whole entry): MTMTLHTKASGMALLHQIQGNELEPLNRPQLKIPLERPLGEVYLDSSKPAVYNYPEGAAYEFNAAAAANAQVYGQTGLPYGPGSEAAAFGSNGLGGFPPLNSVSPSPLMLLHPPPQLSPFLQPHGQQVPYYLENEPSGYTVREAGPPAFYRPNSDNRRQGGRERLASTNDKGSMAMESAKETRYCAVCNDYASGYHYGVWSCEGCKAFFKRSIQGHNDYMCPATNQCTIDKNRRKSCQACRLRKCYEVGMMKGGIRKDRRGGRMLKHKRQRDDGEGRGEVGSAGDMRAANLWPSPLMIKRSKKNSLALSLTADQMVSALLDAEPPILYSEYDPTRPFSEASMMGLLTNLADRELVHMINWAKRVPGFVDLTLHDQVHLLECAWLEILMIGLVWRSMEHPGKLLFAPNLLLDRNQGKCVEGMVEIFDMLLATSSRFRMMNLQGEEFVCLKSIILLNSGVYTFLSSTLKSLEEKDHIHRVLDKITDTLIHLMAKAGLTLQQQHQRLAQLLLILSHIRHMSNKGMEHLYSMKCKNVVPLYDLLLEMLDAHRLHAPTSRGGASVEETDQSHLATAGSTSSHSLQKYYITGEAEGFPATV
As to the kind of experiment: Agonist activity at human ER. It counts as functional.

The target of data set [4] is T1, Estrogen receptor (Homo sapiens). In words: Antagonist activity at human ER. It counts as functional.
Data set [5] in a line: Antiinflammatory activity in rat assessed as inhibition of LPS-induced lung neutrophilia at 10 ug, intratracheally administered 4 hr prior to LPS challenge measured after 24 hrs. The class given is functional, Neutrophil.
Data set [6] has as its system Rattus norvegicus. In words: Clearance in rat at 0.5 mg/kg, iv. It counts as ADME, organism-based. The arrangement: dose 0.5 mg/kg, route intravenous. To be noted: in vivo.
The nature of data set [7]: Oral bioavailability in rat at 2 mg/kg. To be noted: in vivo. It counts as ADME, organism-based.
A short description of data set [8]: Antiinflammatory activity in rat assessed as inhibition of LPS-induced lung neutrophilia at 10 ug, intratracheally administered 4 hr prior to LPS challenge measured after 1 hr. The class given is functional, Neutrophil.
In data set [9] the target is T2, Androgen receptor (Homo sapiens) (UniProt P10275).
T2 sequence (whole entry): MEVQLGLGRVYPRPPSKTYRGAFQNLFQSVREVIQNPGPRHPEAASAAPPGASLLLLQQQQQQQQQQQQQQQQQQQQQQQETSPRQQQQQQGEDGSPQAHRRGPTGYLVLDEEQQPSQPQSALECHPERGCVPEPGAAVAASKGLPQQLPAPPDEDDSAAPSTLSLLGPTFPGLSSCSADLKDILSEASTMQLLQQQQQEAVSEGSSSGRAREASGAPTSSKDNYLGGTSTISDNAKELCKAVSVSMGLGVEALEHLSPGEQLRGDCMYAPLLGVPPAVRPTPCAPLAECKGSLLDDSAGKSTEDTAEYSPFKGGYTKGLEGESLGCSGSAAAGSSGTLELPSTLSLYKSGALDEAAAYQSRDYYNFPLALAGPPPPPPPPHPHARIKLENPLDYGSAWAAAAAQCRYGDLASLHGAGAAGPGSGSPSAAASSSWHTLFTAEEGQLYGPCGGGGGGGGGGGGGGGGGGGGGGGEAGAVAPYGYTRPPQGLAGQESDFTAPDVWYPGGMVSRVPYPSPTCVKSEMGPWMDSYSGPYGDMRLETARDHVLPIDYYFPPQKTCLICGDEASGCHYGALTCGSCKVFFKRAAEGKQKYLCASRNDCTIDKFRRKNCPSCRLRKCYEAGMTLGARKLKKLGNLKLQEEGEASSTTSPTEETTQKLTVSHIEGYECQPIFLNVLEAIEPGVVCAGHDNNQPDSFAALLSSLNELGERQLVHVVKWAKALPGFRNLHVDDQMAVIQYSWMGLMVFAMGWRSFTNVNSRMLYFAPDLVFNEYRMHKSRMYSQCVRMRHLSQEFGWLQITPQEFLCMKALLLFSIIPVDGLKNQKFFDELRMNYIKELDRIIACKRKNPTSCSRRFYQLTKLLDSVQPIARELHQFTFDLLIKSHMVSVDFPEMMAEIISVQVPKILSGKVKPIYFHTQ
In words: Antagonist activity at human AR. It counts as functional.

Data set [10] is described as follows: Antiinflammatory activity in intratracheally dosed rat assessed as effective dose for inhibition of LPS-induced lung neutrophilia. It counts as functional, Neutrophil.
Data set [11] is described as follows: Metabolic stability in human liver microsomes assessed as phase 2 glucuronidation in presence of UDPGA. It counts as ADME, Microsome. To be noted: read-out: Stability. A general note: Liver microsomes are vesicles of endoplasmic reticulum, rich in cytochrome P450 enzymes.
Data set [12] can be described thus: Metabolic stability of compound in human liver microsomes assessed as intrinsic clearance by equilibrium dialysis. It counts as ADME, Microsome.
The test system of the next data set is PBMC. As to the kind of experiment: Inhibition of TNFalpha release in human PBMC by ELISA assay. The class given is functional, cell-based.
Data set [13] is described as follows: Solubility of compound in simulated lung fluid by dialysis bag method. The class given is physicochemical.
The subject of data set [14] is Rattus norvegicus. As to the kind of experiment: Unbound clearance in rat at 0.5 mg/kg, iv. The class given is ADME, organism-based. Also on record: dose 0.5 mg/kg, route intravenous. The conditions noted are these: in vivo.
Data set [15] is described as follows: Half life in rat. The class given is ADME, organism-based. To be noted: in vivo.
For another data set, the system named is Blood. In words: Inhibition of TNFalpha release in LPS-stimulated human whole blood by ELISA assay. It counts as functional, tissue-based. For orientation: In an ELISA, binding on a coated surface is turned into a signal by an enzyme label.
Data set [16] addresses T2, Androgen receptor (Homo sapiens). As to the kind of experiment: Agonist activity at human AR. It counts as functional.

Values after ≈ are worked out from the molar mass of the structure shown. Active and inactive are the calls of the source. No cut-off for these calls is given here.

With `C[C@]12C=CC(=O)C=C1[C@@H](F)C[C@H]1[C@@H]3C[C@H]4O[C@@H](c5ccc(CSc6ccc(O)c(Cl)c6)cc5)O[C@@]4(C(=O)CO)[C@@]3(C)C[C@H](O)[C@@]12F`, the “inhibition (INH)” value in data set [1] came out at 46%; in data set [2], 59%; in [5], 24%; in data set [8], 52%. The outcome in data set [3], in data set [4], in data set [9] and in data set [16] was inactive. Besides, in the data set on Rattus norvegicus [6], the clearance turned out to be 84 mL/min/kg. In data set [7], this compound yielded a bioavailability of less than 1%. Besides, the ED50 in data set [10] was found to be 36 µg. For the same compound, the microsomal CLint in data set [11] was 100 µL/min/mg; in data set [12] it was 122 µL/min/mg. The IC50 in the data set on PBMC was determined as 0.03 nM; in the data set with Blood, 8.73 nM. In data set [13], this compound registered a solubility of 0.36 µg/mL (≈ 0.535 µM). For the same compound, in the data set with Rattus norvegicus [14], the CL free is greater than 59000 mL/min/kg. The compound also had a half-life in data set [15] of 2.8 h.
